{"source": "paper PMC10652874", "about": "“Investigation into the mechanism of action of the antimicrobial peptide epilancin 15X” (Frontiers in Microbiology, 2023)", "test_system": "S. carnosus TM300", "test": "RNAseq differential gene expression", "type": "cell-based, Staphylococcus carnosus", "description": "For the RNAseq experiments, epilancin was added at sub-lethal concentration (0.5x MIC) to S. carnosus TM300 once the cultures reached an OD600 of 0.6. RNA was extracted 40 min after the treatment, using a FastRNA Pro Blue kit (MP Biomedicals). Both treated and parallel untreated samples were collected at the same time. Sequencing was performed at the Carver Biotechnology Center (UIUC). For RNAseq analysis, gene counts were read in to R (v3.1.1; [Team, 2014]), and 14/2441 genes were removed because they had fewer than 32 total counts across the six samples. edgeR’s (v3.6.7) TMM normalization ([Robinson and Oshlack, 2010]) plus negative binomial generalized log-linear model ([McCarthy et al., 2012]) was used to test for differential expression between treated and untreated groups, while accounting for pairing of U and T replicates from three different cultures. p-values were adjusted using the false discovery rate method ([Benjamini and Hochberg, 1995]).", "key": {"[1]": {"conditions": "AraC family transcriptional regulator"}, "[2]": {"conditions": "S. carnosus TM300, 0.5x MIC, RNA extracted 40 min after treatment"}}}
{"substance": "Epilancin 15X", "values": [{"measurement": "fold_change Sca_0118", "value": 2.03}, {"measurement": "fold_change Sca_0226", "value": 2.6}, {"measurement": "fold_change Sca_0277", "value": 4.82}, {"measurement": "fold_change Sca_0326", "value": 2.89}, {"measurement": "fold_change Sca_0702", "value": 3.4}, {"measurement": "fold_change Sca_1839", "value": 2.65}, {"measurement": "fold_change Sca_0283", "setting": "4-aminobutyrate aminotransferase", "value": 2.6}, {"measurement": "fold_change Sca_1048", "setting": "5-bromo-4-chloroindolyl phosphate hydrolysis protein XpaC", "value": 2.07}, {"measurement": "fold_change rpsN", "setting": "30S ribosomal protein S14", "value": 0.49}, {"measurement": "fold_change rplS", "setting": "50S ribosomal protein L19", "value": 0.5}, {"measurement": "fold_change Sca_1439", "setting": "ABC transporter ATP-binding protein", "value": 2.23}, {"measurement": "fold_change Sca_0292", "setting": "ATP-binding cassette transporter A", "value": 2.29}, {"measurement": "fold_change clpP", "setting": "ATP-dependent Clp protease proteolytic subunit", "value": 5.08}, {"measurement": "fold_change recG", "setting": "ATP-dependent DNA helicase RecG", "value": 2.72}, {"measurement": "fold_change Sca_0180", "setting": "ATP:guanido phosphotransferase", "value": 4.91}, {"measurement": "fold_change Sca_0313", "setting": "[1]", "value": 2.06}, {"measurement": "fold_change Sca_0314", "setting": "[1]", "value": 2.39}, {"measurement": "fold_change Sca_0315", "setting": "[1]", "value": 2.4}, {"measurement": "fold_change Sca_0113", "setting": "ArsR family transcription regulator", "value": 4.25}, {"measurement": "fold_change clpB", "setting": "ClpB chaperone", "value": 10.1}, {"measurement": "fold_change clpC", "setting": "ClpC ATPase family protein", "value": 4.95}, {"measurement": "fold_change dltA", "setting": "D-alanine--poly(phosphoribitol) ligase subunit 1", "value": 2.2}, {"measurement": "fold_change dltC", "setting": "D-alanine--poly(phosphoribitol) ligase subunit 2", "value": 2.03}, {"measurement": "fold_change dnaN", "setting": "DNA polymerase III subunit beta", "value": 2.14}, {"measurement": "fold_change dinB", "setting": "DNA polymerase IV, gene dinP", "value": 2.92}, {"measurement": "fold_change dltB", "setting": "DltB membrane protein", "value": 2.19}, {"measurement": "fold_change Sca_2272", "setting": "Glycerate kinase", "value": 2.24}, {"measurement": "fold_change Sca_0776", "setting": "Glyoxalase family protein", "value": 2.76}, {"measurement": "fold_change hslO", "setting": "Hsp33-like chaperonin, gene hsp33", "value": 2.39}, {"measurement": "fold_change Sca_0214", "setting": "LD-carboxypeptidase family protein", "value": 0.5}, {"measurement": "fold_change lexA", "setting": "LexA repressor", "value": 2.01}, {"measurement": "fold_change Sca_0115", "setting": "LysR family transcriptional regulator", "value": 2.11}, {"measurement": "fold_change moaD", "setting": "MoaD", "value": 2.46}, {"measurement": "fold_change moaE", "setting": "MoaE", "value": 2.53}, {"measurement": "fold_change mobB", "setting": "MobB", "value": 2.72}, {"measurement": "fold_change moaA", "setting": "Molybdenum cofactor biosynthesis protein A", "value": 2.82}, {"measurement": "fold_change nanA", "setting": "N-acetylneuraminate lyase", "value": 2.13}, {"measurement": "expression of vraR, upregulated compared to untreated control", "setting": "[2]", "value": 8, "unit": "fold"}, {"measurement": "expression of vraS, upregulated compared to untreated control", "setting": "[2]", "value": 8, "unit": "fold"}, {"measurement": "fold_change Sca_0453", "setting": "TOPRIM domain-containing protein", "value": 3.05}, {"measurement": "fold_change Sca_2234", "setting": "TetR family transcriptional regulator", "value": 2.13}, {"measurement": "fold_change Sca_2397", "setting": "ThiJ/PfpI family protein", "value": 4.76}, {"measurement": "fold_change gtaB", "setting": "UTP-glucose-1-phosphate uridyltransferase", "value": 0.5}, {"measurement": "fold_change Sca_0065", "setting": "acetoin reductase", "value": 4.35}, {"measurement": "fold_change mecA", "setting": "adaptor protein, gene SCA_0598", "value": 2.48}, {"measurement": "fold_change glpD", "setting": "aerobic glycerol-3-phosphate dehydrogenase", "value": 2.81}, {"measurement": "fold_change Sca_2335", "setting": "alcohol dehydrogenase, zinc-containing, gene gutB", "value": 2.81}, {"measurement": "fold_change ahpC", "setting": "alkyl hydroperoxide reductase subunit C", "value": 5.8}, {"measurement": "fold_change ahpF", "setting": "alkyl hydroperoxide reductase subunit F", "value": 5.74}, {"measurement": "fold_change lrgB", "setting": "antiholin-like protein LrgB", "value": 5.42}, {"measurement": "fold_change capM", "setting": "capsular polysaccharide synthesis enzyme Cap5M", "value": 0.49}, {"measurement": "fold_change katA", "setting": "catalase", "value": 2.04}, {"measurement": "fold_change dnaJ", "setting": "chaperone protein DnaJ", "value": 2.06}, {"measurement": "fold_change uvrA", "setting": "excinuclease ABC subunit A", "value": 3.06}, {"measurement": "fold_change uvrB", "setting": "excinuclease ABC subunit B", "value": 3.63}, {"measurement": "fold_change uvrC", "setting": "excinuclease ABC subunit C", "value": 2.28}, {"measurement": "fold_change Sca_1475", "setting": "formate dehydrogenase", "value": 2.72}, {"measurement": "fold_change fdh", "setting": "formate dehydrogenase", "value": 3.34}, {"measurement": "fold_change", "setting": "gene SCA_0282 (thrS), threonyl-tRNA synthetase", "value": 0.44}, {"measurement": "fold_change", "setting": "gene Sca_0027 (ssb), putative single-strand DNA-binding protein", "value": 0.48}, {"measurement": "fold_change", "setting": "gene Sca_0095, putative autolysin with LysM domain", "value": 0.47}, {"measurement": "fold_change", "setting": "gene Sca_0210, Choloylglycine hydrolase family protein", "value": 0.42}, {"measurement": "fold_change", "setting": "gene Sca_0261, FecCD transport family protein", "value": 0.48}, {"measurement": "fold_change", "setting": "gene Sca_0273, putative lipoprotein, AdhesinB family protein", "value": 0.41}, {"measurement": "fold_change", "setting": "gene Sca_0274, putative ABC transporter permease", "value": 0.44}, {"measurement": "fold_change", "setting": "gene Sca_0348 (fruA), putative fructose specific permease", "value": 0.49}, {"measurement": "fold_change", "setting": "gene Sca_0374, putative proton-dependent oligopeptide transporter", "value": 0.43}, {"measurement": "fold_change", "setting": "gene Sca_0418, putative branched-chain amino acid transport system II carrier protein", "value": 0.4}, {"measurement": "fold_change", "setting": "gene Sca_0437 (csp), putative cold-shock protein", "value": 0.43}, {"measurement": "fold_change", "setting": "gene Sca_0445, hypothetical protein", "value": 0.43}, {"measurement": "fold_change", "setting": "gene Sca_0446, hypothetical protein", "value": 0.45}, {"measurement": "fold_change", "setting": "gene Sca_0547, cytosol aminopeptidase family protein", "value": 0.42}, {"measurement": "fold_change", "setting": "gene Sca_0617, hypothetical protein", "value": 0.45}, {"measurement": "fold_change", "setting": "gene Sca_0626, putative sodium transport protein", "value": 0.4}, {"measurement": "fold_change", "setting": "gene Sca_0661", "value": 0.41}, {"measurement": "fold_change", "setting": "gene Sca_0724, putative DNA binding protein", "value": 0.44}, {"measurement": "fold_change", "setting": "gene Sca_0743, hypothetical protein", "value": 0.4}, {"measurement": "fold_change", "setting": "gene Sca_0749, hypothetical protein", "value": 0.48}, {"measurement": "fold_change", "setting": "gene Sca_0919, hypothetical protein", "value": 0.44}, {"measurement": "fold_change", "setting": "gene Sca_0920, hypothetical protein", "value": 0.46}, {"measurement": "fold_change", "setting": "gene Sca_0975, putative amino acid permease", "value": 0.46}, {"measurement": "fold_change", "setting": "gene Sca_0984, hypothetical protein", "value": 0.41}, {"measurement": "fold_change", "setting": "gene Sca_1053, hypothetical protein", "value": 0.47}, {"measurement": "fold_change", "setting": "gene Sca_1134, hypothetical protein", "value": 0.45}, {"measurement": "fold_change", "setting": "gene Sca_1194, hypothetical protein", "value": 0.48}, {"measurement": "fold_change", "setting": "gene Sca_1195", "value": 0.43}, {"measurement": "fold_change", "setting": "gene Sca_1364 (leuS''), leucyl-tRNA synthetase (fragment 2)", "value": 0.47}, {"measurement": "fold_change", "setting": "gene Sca_1365 (leuS'), leucyl-tRNA synthetase (fragment 1)", "value": 0.4}, {"measurement": "fold_change", "setting": "gene Sca_1388, hypothetical protein", "value": 0.46}, {"measurement": "fold_change", "setting": "gene Sca_1421, hypothetical protein", "value": 0.46}, {"measurement": "fold_change", "setting": "gene Sca_1425, hypothetical protein", "value": 0.45}, {"measurement": "fold_change", "setting": "gene Sca_1427, hypothetical protein", "value": 0.41}, {"measurement": "fold_change", "setting": "gene Sca_1433, hypothetical protein", "value": 0.44}, {"measurement": "fold_change", "setting": "gene Sca_1450, hypothetical protein", "value": 0.41}, {"measurement": "fold_change", "setting": "gene Sca_1584, hypothetical protein", "value": 0.47}, {"measurement": "fold_change", "setting": "gene Sca_1777, hypothetical protein", "value": 0.41}, {"measurement": "fold_change", "setting": "gene Sca_1794, hypothetical protein", "value": 0.43}, {"measurement": "fold_change", "setting": "gene Sca_1832, hypothetical protein", "value": 0.42}, {"measurement": "fold_change", "setting": "gene Sca_1870, hypothetical protein", "value": 0.45}, {"measurement": "fold_change", "setting": "gene Sca_1880, hypothetical protein", "value": 0.46}, {"measurement": "fold_change", "setting": "gene Sca_1922, putative integral membrane efflux protein", "value": 0.41}, {"measurement": "fold_change", "setting": "gene Sca_1980, putative L-serine dehydratase beta chain", "value": 0.42}, {"measurement": "fold_change", "setting": "gene Sca_1997, hypothetical protein", "value": 0.49}, {"measurement": "fold_change", "setting": "gene Sca_2043, hypothetical protein", "value": 0.46}, {"measurement": "fold_change", "setting": "gene Sca_2184, hypothetical protein", "value": 0.4}, {"measurement": "fold_change", "setting": "gene Sca_2345, hypothetical protein", "value": 0.41}, {"measurement": "fold_change", "setting": "gene Sca_2346, putative capsular polysaccharide biosynthesis protein", "value": 0.41}, {"measurement": "fold_change", "setting": "gene Sca_2352, hypothetical protein", "value": 0.48}, {"measurement": "fold_change", "setting": "gene Sca_2411", "value": 0.47}, {"measurement": "fold_change", "setting": "gene apbA, putative 2-dehydropantoate 2-reductase", "value": 0.47}, {"measurement": "fold_change", "setting": "gene aspS, aspartyl-tRNA synthetase", "value": 0.43}, {"measurement": "fold_change", "setting": "gene atpD, F0F1 ATP synthase subunit beta", "value": 0.41}, {"measurement": "fold_change", "setting": "gene capB, capsular polysaccharide biosynthesis protein", "value": 0.43}, {"measurement": "fold_change", "setting": "gene ctaB, protoheme IX farnesyltransferase", "value": 0.41}, {"measurement": "fold_change", "setting": "gene cysE, serine acetyltransferase", "value": 0.46}, {"measurement": "fold_change", "setting": "gene deoD, purine nucleoside phosphorylase", "value": 0.48}, {"measurement": "fold_change", "setting": "gene engB (SCA_1279), ribosome biogenesis GTP-binding protein YsxC", "value": 0.47}, {"measurement": "fold_change", "setting": "gene fbp, putative fructose-bisphosphatase", "value": 0.41}, {"measurement": "fold_change", "setting": "gene fecB, putative ferrichrome ABC transporter (binding protein)", "value": 0.42}, {"measurement": "fold_change", "setting": "gene fruB, putative fructose 1-phosphate kinase", "value": 0.42}, {"measurement": "fold_change", "setting": "gene gcvH (gcdH), glycine cleavage system protein H", "value": 0.45}, {"measurement": "fold_change", "setting": "gene gcvPB' (gcvPB''), glycine dehydrogenase [decarboxylating] subunit 2(fragment 1)", "value": 0.43}, {"measurement": "fold_change", "setting": "gene gntR, putative gluconate operon transcriptional repressor", "value": 0.47}, {"measurement": "fold_change", "setting": "gene gudB, NAD-specific glutamate dehydrogenase", "value": 0.47}]}
